Source: patent US11807625B2, “Capsid inhibitors for the prevention of HIV” (Gilead Sciences, Inc., priority 2019, dated 2023)

Experiment: PK of compound of Formula (Ia) after single subcutaneous dose of solution formulations in Wistar Han rats
Assay type: in vivo
Conditions: male, Wistar Han, rat, plasma, sc, 50 mg/kg, Wistar Han rats, SC 50 mg/kg
Protocol: Formulations containing the compound of Formula (Ia), or a pharmaceutically acceptable salt thereof, were prepared as solutions and optionally administered subcutaneously or intramuscularly to rats, rabbits, and/or dogs.
(§1) A solution of about 400 mg/mL of the compound of Formula (Ia) having 19.14 w/w % water, 40.66 w/w % PEG 300, 35.20 w/w % of a sodium salt of a compound of Formula (Ia), and 5.00% ethanol was prepared. The solution was administered subcutaneously to male Wistar Han rats at a dose level of about 50 mg/kg and dose volume of 0.125 mL/kg and the pharmacokinetic (PK) profile was determined.
as §1, with “500” for “400”, “16.64” for “19.14”, “35.36” for “40.66”, “43.00” for “35.20”, “0.1” for “0.125”
(§2) A solution of about 400 mg/mL of the compound of Formula (Ia) having 17.00 w/w % water, 36.40 w/w % PEG 300, 35.20 w/w % of a sodium salt of a compound of Formula (Ia), 5.00 w/w % ethanol, and 6.40 w/w % poloxamer 188 was prepared. The solution was administered subcutaneously to male beagle dogs at a dose level of about 12 mg/kg and male Wistar Han rats at a dose level of about 50 mg/kg. The pharmacokinetic profiles were determined, and the results for dogs are summarized in Table and Table, while the results for rats are summarized in Table and Table below.
as §2, with “500” for “400”, “14.06” for “17.00”, “30.12” for “36.40”
A solution of about 300 mg/mL of the compound of Formula (Ia) having 23.33 w/w % water, 48.99 w/w % PEG 300, 26.47 w/w % of a sodium salt of a compound of Formula (Ia), and 1.21 w/w % poloxamer 188 was prepared. The solution was administered subcutaneously to male beagle dogs at a dose level of about 6 mg/kg and male Wistar Han rats at a dose level of about 50 mg/kg. The pharmacokinetic profiles were determined, and the results for dogs are summarized in Table and Table, while the results for rats are summarized in Table and Table below.
as §2, with “18.80” for “17.00”, “40.25” for “36.40”, “34.38” for “35.20”, “1.57” for “6.40”
as §2, with “500” for “400”, “16.29” for “17.00”, “34.88” for “36.40”, “41.92” for “35.20”, “1.91” for “6.40”
A solution of about 400 mg/mL of the compound of Formula (Ia) having 20.90 w/w % water, 44.72 w/w % PEG 300, and 34.38 w/w % of a sodium salt of a compound of Formula (Ia) was prepared. […]

[1] = 400 mg/mL solution AA (6.25% poloxamer 188), Mean n = 4
[2] = 400 mg/mL solution W (5.00% ethanol, 1.57% poloxamer 188), Mean n = 3
[3] = 400 mg/mL solution W (5.00% ethanol, 1.57% poloxamer 188), animals #1-#3
[4] = 400 mg/mL solution Y (water, PEG 300), Mean n = 4
[5] = 400 mg/mL solution Y (water, PEG 300), animals #1-#4
[6] = 400 mg/mL solution Z (3.13% poloxamer 188), Mean n = 4
[7] = 400 mg/mL solution Z (3.13% poloxamer 188), animals #1-#4
[8] = 400 mg/mL solution Z (3.13% poloxamer 188), Mean (#2 NS)
[9] = 400 mg/mL solution Z (3.13% poloxamer 188), animals #1, #3, #4 (#2 NS)
[10] = 500 mg/mL solution X (5.00% ethanol, 1.91% poloxamer 188), Mean n = 3
[11] = 500 mg/mL solution X (5.00% ethanol, 1.91% poloxamer 188), animals #1-#3

concentration at 2016 h [1]: 78.2 nM | concentration at 2352 h [1]: 75.4 nM | concentration at 2688 h [1]: 74.6 nM | concentration at 3024 h [1]: 69.8 nM | concentration at 3360 h [1]: 64.1 nM | concentration at 3696 h [1]: 65.7 nM | concentration at 1 h [2]: 30.6 nM | concentration at 3 h [2]: 53.4 nM | concentration at 8 h [2]: 76.9 nM | concentration at 24 h [2]: 120 nM | concentration at 24 h [3]: 127 nM | concentration at 48 h [2]: 152 nM | concentration at 48 h [3]: 128 nM | concentration at 72 h [2]: 152 nM | concentration at 72 h [3]: 112 nM | concentration at 96 h [2]: 138 nM | concentration at 96 h [3]: 98.6 nM | concentration at 168 h [2]: 118 nM | concentration at 168 h [3]: 80 nM | concentration at 336 h [2]: 171 nM | concentration at 336 h [3]: 123 nM | concentration at 504 h [2]: 248 nM | concentration at 504 h [3]: 194 nM | concentration at 672 h [2]: 261 nM | concentration at 672 h [3]: 217 nM | concentration at 840 h [2]: 290 nM | concentration at 840 h [3]: 273 nM | concentration at 1008 h [2]: 239 nM | concentration at 1008 h [3]: 176 nM | concentration at 1344 h [2]: 305 nM | concentration at 1344 h [3]: 260 nM | concentration at 1680 h [2]: 261 nM | concentration at 1680 h [3]: 206 nM | concentration at 2016 h [2]: 201 nM | concentration at 2016 h [3]: 163 nM | concentration at 2352 h [2]: 162 nM | concentration at 2352 h [3]: 164 nM | concentration at 2688 h [2]: 173 nM | concentration at 2688 h [3]: 170 nM | concentration at 3024 h [2]: 131 nM | concentration at 3024 h [3]: 145 nM | concentration at 3360 h [2]: 129 nM | concentration at 3360 h [3]: 151 nM | concentration at 3696 h [2]: 107 nM | concentration at 3696 h [3]: 133 nM | concentration at 4032 h (400 mg/mL solution W (5.00% ethanol, 1.57% poloxamer 188), 4032 h, Mean n = 3): 97.5 nM | concentration at 4704 h (400 mg/mL solution W (5.00% ethanol, 1.57% poloxamer 188), 4704 h, Mean n = 3): 57.9 nM | concentration at 1 h [4]: 28.6 nM | concentration at 1 h [5]: 28.7 nM | concentration at 3 h [4]: 52.2 nM | concentration at 3 h [5]: 51.3 nM | concentration at 8 h [4]: 65.8 nM | concentration at 8 h [5]: 62.1 nM | concentration at 24 h [4]: 93.2 nM | concentration at 24 h [5]: 72.1 nM | concentration at 48 h [4]: 110 nM | concentration at 48 h [5]: 83 nM | concentration at 72 h [4]: 109 nM | concentration at 72 h [5]: 87.1 nM | concentration at 96 h [4]: 95.3 nM | concentration at 168 h [4]: 85.7 nM | concentration at 336 h [4]: 103 nM | concentration at 504 h [4]: 131 nM | concentration at 672 h [4]: 151 nM | concentration at 840 h [4]: 158 nM | concentration at 1008 h [4]: 162 nM | concentration at 1344 h [4]: 159 nM | concentration at 1680 h [4]: 132 nM | concentration at 2016 h [4]: 117 nM | concentration at 2352 h [4]: 118 nM | concentration at 2688 h [4]: 119 nM | concentration at 3024 h [4]: 105 nM | concentration at 3360 h [4]: 95.2 nM | concentration at 3696 h [4]: 90.4 nM | concentration at 1 h [6]: 41.7 nM | concentration at 3 h [6]: 70.3 nM | concentration at 8 h [6]: 85.9 nM | concentration at 24 h [6]: 144 nM | concentration at 48 h [6]: 165 nM | concentration at 72 h [6]: 163 nM | concentration at 96 h [6]: 147 nM | concentration at 168 h [6]: 135 nM | concentration at 336 h [6]: 169 nM | concentration at 504 h [6]: 166 nM | concentration at 672 h [6]: 172 nM | concentration at 672 h [7]: 163 nM | concentration at 840 h [6]: 174 nM | concentration at 1008 h [6]: 164 nM | concentration at 1008 h [7]: 137 nM | concentration at 1344 h [6]: 138 nM | concentration at 1344 h [7]: 113 nM | concentration at 1680 h [6]: 127 nM | concentration at 1680 h [7]: 108 nM | concentration at 2016 h [6]: 127 nM | concentration at 2016 h [7]: 111 nM | concentration at 2352 h [6]: 127 nM | concentration at 2352 h [7]: 101 nM | concentration at 2688 h [6]: 141 nM | concentration at 2688 h [7]: 118 nM | concentration at 3024 h [6]: 133 nM | concentration at 3024 h [7]: 110 nM | concentration at 3360 h [8]: 133 nM | concentration at 3360 h [9]: 109 nM | concentration at 3696 h [8]: 135 nM | concentration at 3696 h [9]: 91.2 nM | concentration at 1 h [10]: 46.8 nM | concentration at 3 h [10]: 77.6 nM | concentration at 3 h [11]: 89 nM | concentration at 8 h [10]: 96.2 nM | concentration at 8 h [11]: 115 nM | concentration at 24 h [10]: 184 nM | concentration at 24 h [11]: 164 nM | concentration at 48 h [10]: 209 nM | concentration at 48 h [11]: 209 nM | concentration at 72 h [10]: 199 nM | concentration at 72 h [11]: 207 nM | concentration at 96 h [10]: 187 nM | concentration at 96 h [11]: 193 nM | concentration at 168 h [10]: 176 nM | concentration at 168 h [11]: 204 nM | concentration at 336 h [10]: 233 nM | concentration at 336 h [11]: 269 nM | concentration at 504 h [10]: 270 nM | concentration at 504 h [11]: 311 nM | concentration at 672 h [10]: 270 nM | concentration at 672 h [11]: 312 nM | concentration at 840 h [10]: 294 nM | concentration at 840 h [11]: 361 nM | concentration at 1008 h [10]: 235 nM | concentration at 1008 h [11]: 209 nM | concentration at 1344 h [10]: 272 nM | concentration at 1344 h [11]: 314 nM | concentration at 1680 h [10]: 247 nM | concentration at 1680 h [11]: 206 nM | concentration at 2016 h [10]: 193 nM | concentration at 2016 h [11]: 161 nM | concentration at 2352 h [10]: 158 nM | concentration at 2352 h [11]: 111 nM
SMILES: CC(C)(C#Cc1ccc(-c2ccc(Cl)c3c(NS(C)(=O)=O)nn(CC(F)(F)F)c23)c([C@H](Cc2cc(F)cc(F)c2)NC(=O)Cn2nc(C(F)(F)F)c3c2C(F)(F)[C@@H]2C[C@H]32)n1)S(C)(=O)=O [compound of Formula (Ia)]
